Measurements published in article PMC8253137, “Microbiota-derived butyrate is an endogenous HIF prolyl hydroxylase inhibitor” (Gut Microbes, 2021).

Columns and labels:
PHD2_181-402 [1] = biological target: T1, PHD2_181-402 (Homo sapiens, UniProt Q9GZT9); experiment: PHD2_181-402 inhibition assay (bioluminescent succinate detection, Succinate-Glo); assay type: biochemical
Experimental: PHD2_181-402 activity and inhibition assays were performed with the Succinate-Glo JmjC Demethylase/Hydroxylase Assay Kit (Promega) according to manufacturer protocol and as detailed in Alves et al. […] The enzymatic reaction was incubated at room temperature for 10 minutes, after which succinate formation was detected according to manufacturer protocol. […] Then, 20 µL of Succinate Detection Reagent II was added to the reactions and incubated for 10 min at room temperature before the luciferase-generated luminescence was recorded on a plate-reading luminometer. Succinate standard curves were used to determine the sensitivity and linear range of the bioluminescent succinate detection. […] Succinate standards were serially diluted two-fold from 15 µM to 58.6 nM and a 0 succinate blank. 10 µL of succinate standards were used for detection as described above. […] Reactions were incubated at room temperature for 10 minutes and succinate detected. […] Measured IC50s were calculated from fitting the percentage activity data to the [Inhibitor] vs. normalized response – variable slope least squares nonlinear regression in GraphPad Prism 9. True IC50s were calculated from measured IC50s with the equation derived by Wu et al.[26] describing the relationship between the measured IC50 of an inhibitor and the percentage of substrate conversion.

murine enteroids = experiment: HIF stabilization in differentiated murine enteroids; assay type: cell-based, mice; settings: butyrate with or without 1 mM MCPA, 4 h
Experimental: Murine intestinal organoids/enteroids were isolated from wild-type C57BL/6 mice and cultured as previously described.[60] Briefly, colonic tissues were minced and then enzymatically digested and dissociated in GentleMACS tubes (Milteny Biotec). The homogenized tissues were then filtered through a 70 µm cell strainer and resuspended in Matrigel (Corning). Cells were cultured in L-WRN conditioned media until ready for differentiation into an epithelial lineage, in which the cells were incubated for 2 d in L-WRN media diluted 5-fold with DMEM:F-12 supplemented with 10% calf serum, 1% penicillin/streptomycin, and 1% GlutaMAX™. […] MCPA treatment also includes a 2 h pretreatment with MCPA before butyrate was added.
TRIzol® reagent (ThermoFisher Scientific) was used to isolate total RNA from T84 cells. […] Quantitative PCR analysis was performed using the Power SYBR™ Green master mix (Applied Biosystems) in a thermocycler. Fold change in expression of target mRNA relative to β-actin (ACTB) mRNA was calculated using the delta-delta Ct method. […]
T84 cells were rinsed with PBS and collected and lysed in 200 µL of radioimmunoprecipitation assay (RIPA, 50 mM Tris-HCl pH 8.0, 1 mM EDTA, 1% Triton X-100, […], 0.5% sodium deoxycholate, 150 mM NaCl) buffer with protease inhibitors on ice. […] Protein quantity of the supernatant was determined using the Bradford reagent. […]

PHD2_181-402 [2] = biological target: T1, PHD2_181-402; experiment: Microscale thermophoresis (MST) binding
HDACs = tested on: HDACs; set-up: method as in PMID 18061431, PMID 30052654; settings: cited from earlier work
T84 cells = experiment: HIF stabilization in T84 cells (HIF-1α target mRNA, HIF-1α western blot); assay type: cell-based; settings: 4 h
Experimental: T84 cells were cultured in 95% air with 5% CO2 at 37°C in standard media made of DMEM:F-12 supplemented with 10% calf serum, 1% penicillin/streptomycin, and 1% GlutaMAX™ (ThermoFisher Scientific) on 9.6 cm^2 6-well plates (ThermoFisher Scientific). Real-time oxygen sensing was done using the SensorDish Reader from Applikon Biotechnology as described previously with T84 cells plated on 0.33 cm^2 transwell inserts (Corning, 0.4 μm).[12] All MCPA treatments included a 2 h pretreatment with MCPA before treatment with butyrate.
TRIzol® reagent (ThermoFisher Scientific) was used to isolate total RNA from T84 cells. Mouse colon tissue samples were harvested into RNAlater™ (Invitrogen) and stored at 4°C for 48 h. Total RNA was isolated from the tissues using RNeasy Plus Mini Kit (Qiagen). cDNA was prepared using the iScript cDNA Synthesis Kit (Bio-Rad). Quantitative PCR analysis was performed using the Power SYBR™ Green master mix (Applied Biosystems) in a thermocycler. Fold change in expression of target mRNA relative to β-actin (ACTB) mRNA was calculated using the delta-delta Ct method. Primer sequences used are as follows: hBNIP3 – forward, 5′- […] −3′, reverse, 5′- […] −3′; hBNIP3L – forward, 5′- […] −3′, reverse, 5′- […] −3′; hGLUT1 – forward, 5′- […] −3′, reverse, 5′- […] −3′; hACTB – forward, 5′- […]-3′, reverse, 5′- […]-3′; mBnip3 – forward, 5′- […] −3′, reverse, 5′- […] −3′; mBnip3l – forward, 5′- […] −3′, reverse, 5′- […] −3′; mGlut1 – forward, 5′- […] −3′, reverse, 5′- […] −3′; and mActb – forward, 5′- […] −3′, reverse, 5′- […] −3′.
T84 cells were rinsed with PBS and collected and lysed in 200 µL of radioimmunoprecipitation assay (RIPA, 50 mM Tris-HCl pH 8.0, 1 mM EDTA, 1% Triton X-100, […], 0.5% sodium deoxycholate, 150 mM NaCl) buffer with protease inhibitors on ice. Mouse colon samples were harvested into 350 µL of RIPA buffer and flash frozen in liquid nitrogen. Samples were homogenized by sonication, and insoluble materials removed by centrifugation at 10,000 g for 5 min at 4°C. Protein quantity of the supernatant was determined using the Bradford reagent. […]

T1 sequence (Q9GZT9 181-402): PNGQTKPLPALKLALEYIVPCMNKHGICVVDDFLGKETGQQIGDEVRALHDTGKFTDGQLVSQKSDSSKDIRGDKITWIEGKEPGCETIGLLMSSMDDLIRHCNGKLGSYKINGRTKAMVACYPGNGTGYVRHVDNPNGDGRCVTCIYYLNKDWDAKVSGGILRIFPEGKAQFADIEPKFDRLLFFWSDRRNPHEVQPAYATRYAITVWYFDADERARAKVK

change of IC50 with increasing 2-OG (PHD2_181-402 [1]; 2-OG at 1, 5, 10, 40 or 100 µM): did not change | Ki (PHD2_181-402 [1]; calculated from true IC50 with the IC50 to Ki conversion equation of Cer et al., read-out: noncompetitive Ki): 5.3 ± 0.5 mM | mode of inhibition (PHD2_181-402 [1]; from 2-OG titration, WaterLOGSY and MST): noncompetitive | IC50 (PHD2_181-402 [1]; read-out: True IC50): 5.3 ± 0.5 mM | Kd (PHD2_181-402 [2]): 2 ± 3 mM | binding to PHD2_181-402 in the presence of 2-OG (MST) (PHD2_181-402 [2]; 25 nM PHD2_181-402, with 500 nM 2-OG): no butyrate binding
Structure (SMILES): CCCC(=O)O [Butyrate]
HIF-1α protein expression (murine enteroids): increased HIF-1α protein expression | HIF-1α target gene expression (murine enteroids): induced expression of HIF-1α target genes | HDAC inhibition (HDACs): most potently inhibits HDACs | HIF stabilization in the presence of MCPA (T84 cells; 10 mM butyrate with 1 mM MCPA): still stabilized HIF | HIF-1α protein levels (T84 cells; 10 mM butyrate): increased | HIF-1α target gene mRNA (BNIP3, BNIP3L, GLUT1) (T84 cells; 10 mM butyrate): induction
